According to the OligoGym collection:
Values joined by “and” are separate entries in the source; they are usually repeats but may differ in a detail not shown here. Identical values can stand only once. After the bases stand the sugars from the 5' end (letter, count) and the backbone: PS all phosphorothioate, else s phosphorothioate and o phosphodiester by linkage. Methylation of C is not given here. [mop] = methoxypropylphosphonate linkage; e = 2'-O-(2-methoxyethyl) (MOE); k = constrained ethyl (cEt); d = 2'-deoxy (DNA); m = 2'-O-methyl

Molecular target: IRF5
Details: ASO

Sequence | target mRNA inhibition (KARPAS-229, 4 µM) | also measured
ATGAGTCATGGGCTGA (sugars kkkddddddddkekek, PS) | 0% | –
ATGCAACATCCATCAA (sugars k3 d10 k3, PS) | 0% | –
CAATGCAACATCCATC (sugars kddddddddddkekek, PS) | 0% | –
CACATCTCCACATCAG (sugars kkddddddddkekekk, PS) | 17% | –
CACATCTCCACATCAG (sugars kkkddddddddkekek, PS) | 43% | –
CACCACTGTGTACCCC (sugars kddddddddddkekek, PS) | 0% | –
CACTGACACAGGCGGA (sugars kkkdddddddddkeke, PS) | 0% | –
CAGGGAGTCAGACCTA (sugars k3 d10 k3, PS) | 0% | –
CAGGTTCTTGGACTCT (sugars k3 d9 k3 e1, PS) | 0% | –
CAGGTTCTTGGACTCT (sugars kkddddddddddkeke, PS) | 28% | –
CATTCTATGCCTTTTA (sugars k3 d10 k3, PS) | 24% | –
CATTCTATGCCTTTTA (sugars kddddddddddkekek, PS) | 37% | –
CATTCTATGCCTTTTA (sugars kdddddddddkekeke, PS) | 13% | –
CCAATGCAACATCCAT (sugars kkkddddddddkekek, PS) | 0% | –
CCAATTTTGCATTCCA (sugars kkdddddddddkdkdk, PS) | 42% | –
CCAATTTTGCATTCCA (sugars kkddddddddkekekk, PS) | 39% | –
CCACTGTGTACCCCAT (sugars k2 d8 e4 k2, PS) | 44% | –
CCACTGTGTACCCCAT (sugars k2 d9 e3 k2, PS) | 64% | –

Sequence | target mRNA inhibition (KARPAS-229, 4 µM) | also measured
CCATTCTATGCCTTTT (sugars k2 d8 e4 k2, PS) | 17% | –
CCATTCTATGCCTTTT (sugars k2 d9 e3 k2, PS) | 50% | –
CCATTCTATGCCTTTT (sugars k3 d9 k3 e1, PS) | 58% and 70% | target mRNA inhibition (KARPAS-229, 0.44444 µM): 31%; target mRNA inhibition (KARPAS-229, 1.33333 µM): 44%; target mRNA inhibition (KARPAS-229, 12 µM): 78%
CCCAATGCAACATCCA (sugars k3 d9 k3 e1, PS) | 0% | –
CCCAATGCAACATCCA (sugars kddddddddddkekek, PS) | 0% | –
CCCAATGCAACATCCA (sugars kekdddddddddeekk, PS) | 0% | –
CCCAATGCAACATCCA (sugars kkddddddddddkeke, PS) | 0% | –
CCTATACAGCTAGGCC (sugars k3 d10 k3, PS) | 0% | –
CCTTCTGCAGGGAGTC (sugars kkddddddddkekekk, PS) | 0% | –
CGGTCTTTGAGGTCTG (sugars k3 d9 k3 e1, PS) | 32% | –
CGGTCTTTGAGGTCTG (sugars k3 d10 k3, PS) | 32% | –
CGGTCTTTGAGGTCTG (sugars kkddddddddddkeke, PS) | 43% and 46% | target mRNA inhibition (KARPAS-229, 0.44444 µM): 31%; target mRNA inhibition (KARPAS-229, 1.33333 µM): 29%; target mRNA inhibition (KARPAS-229, 12 µM): 57%
CGGTCTTTGAGGTCTG (sugars kkddddddddkekekk, PS) | 33% | –
CGGTCTTTGAGGTCTG (sugars kkkddddddddkekek, PS) | 56% | –
CGGTGTATTTCCCTGT (sugars k3 d10 k3, PS) | 0% | –
CTCTAAACCATTCTAT (sugars k3 d10 k3, PS) | 0% | –
CTGATATGATACCTAA (sugars k3 d2 m1 d7 k3, PS) | – | target mRNA inhibition (A-431, 0.00412 µM): 1%; target mRNA inhibition (A-431, 0.01225 µM): 14%; target mRNA inhibition (A-431, 0.03704 µM): 31%; target mRNA inhibition (A-431, 0.11111 µM): 56%; target mRNA inhibition (A-431, 0.33333 µM): 74%; target mRNA inhibition (A-431, 1 µM): 79%
CTGATATGATACCTAA (sugars k3 d10 k3, linkages s4 [mop]1 s10) | – | target mRNA inhibition (A-431, 0.00412 µM): 11%; target mRNA inhibition (A-431, 0.01225 µM): 22%; target mRNA inhibition (A-431, 0.03704 µM): 29%; target mRNA inhibition (A-431, 0.11111 µM): 56%; target mRNA inhibition (A-431, 0.33333 µM): 76%; target mRNA inhibition (A-431, 1 µM): 78%
